In patent US11473055B2, “Virus-free cell lines and methods for obtaining same” (Glycobac, LLC, priority 2015, dated 2022):

Tests used:
Tn-nodavirus = Tn-nodavirus RT-PCR/nested PCR of single TN-368 cell subclones treated with ribavirin; format: cell-based, Trichoplusia ni; settings: single TN-368 cell subclone, 200 μg/mL, about a month (FIG. 14)
Experimental: Example 15. Exemplary method for obtaining an established T. ni cell line that lacks virus. After discovering polyclonal TN-368 cell cultures treated with antiviral drug cocktails remained Tn-nodavirus-positive, we employed a disclosed method for obtaining a virus-free cell line. […] The first culture composition was cultured for about a month with ad hoc amplification to produce progressively larger cultures and, after achieving the 25 cm^2 flask level, samples were tested for Tn-nodavirus by RT-PCR, followed by nested PCR, as described in Example 16. […] The clone, designated Tn-NVN passage zero (PO), was adapted to serum-free ESF 921 medium and grown in suspension. The Tn-NVN cell line was subsequently maintained in this second culture composition and growth format.

Sf-rhabdovirus [1] = system: Sf-rhabdovirus
Sf-rhabdovirus [2] = assay: Sf-rhabdovirus RT-PCR/nested PCR of single Sf9 cell subclones isolated by limiting dilution and treated with antiviral drugs; format: cell-based, Spodoptera frugiperda; settings: single Sf9 cell subclone, 10 μg/ml, about a month (FIG. 2B)
Experimental: Example 3. Exemplary method for obtaining an established Sf cell line characterized by a lack of virus. […] This exemplary embodiment comprised isolating single Sf9 cells by limiting dilution, then treating the isolated cell subclones with antiviral drugs. […] The cells were cultured for about a month with ad hoc amplification to produce progressively larger cultures and, after achieving the 25 cm^2 flask level, samples were tested for Sf-rhabdovirus contamination by PCR, as described in Example 4. A clone lacking Sf-rhabdovirus contamination (FIG. 2B) was transferred to media lacking antiviral drugs, designated Sf-RVN passage zero (PO) and, at P2, transferred to a shake-flask culture in serum-free ESF 921 medium and subsequently maintained in this culture medium and format.
Example 4. Sf-rhabdovirus-specific Reverse Transcription-PCR (RT-PCR)/nested PCR. […] One μL of each primary PCR (RT-PCR) was then used as the template for secondary PCR's (RT-PCR/nested PCR) under the same conditions, except the primers were nested Sf-rhabdovirus-specific primers Mono-1i (SEQ ID NO: 7) and Mono-2i (SEQ ID NO: 8).

Row | Compound | Tn-nodavirus RNA by RT-PCR followed by nested PCR (Tn-nodavirus) | Sf-rhabdovirus RNA by RT-PCR (Sf-rhabdovirus [1]; polyclonal Sf9 cells, 100 μg/ml, about a month, still in presence of drug (FIG. 1A)) | Sf-rhabdovirus RNA by RT-PCR/nested PCR after transfer to drug-free medium (Sf-rhabdovirus [1]; ribavirin-treated Sf9 cells transferred to culture medium lacking antiviral drugs (FIG. 1B)) | Sf-rhabdovirus RNA by RT-PCR followed by nested PCR (Sf-rhabdovirus [2])
1 | NC(=O)c1ncn([C@@H]2O[C@H](CO)[C@@H](O)[C@H]2O)n1 [ribavirin] | lacking Tn-nodavirus | no RT-PCR-detectable Sf-rhabdovirus | reverted to the Sf-rhabdovirus-positive phenotype | –
2 | O=c1cnn([C@@H]2O[C@H](CO)[C@@H](O)[C@H]2O)c(=O)[nH]1 [6-azauridine] | – | – | – | negative for Sf-rhabdovirus contamination
